Laboratory results reported in patent US9944967B2, “Methods for the site-selective introduction of halogen into natural products” (THE REGENTS OF THE UNIVERSITY OF CALIFORNIA, priority 2013, dated 2018).

What was measured:
DEBSMod2/AT^0 = molecular target: T1, DEBSMod2/AT^0 (Saccharopolyspora erythraea, UniProt Q03131, S2598A); test: Triketide lactone production using DEBSMod2/AT0; type: biochemical; conditions: overnight; for conversion of NDK-SNAC to R-TKL: NDK-SNAC (500 μM), respective acyl-CoA regeneration system
T1 construct: MBP (N); His6 (C); His6 (N); made in house; host or cells: E. coli BAP1 (pRARE2 co-expressed)
Method: All assay mixtures contained 400 mM sodium phosphate, pH 7.5, phosphoenolpyruvate (20 mM), TCEP (5 mM), magnesium chloride (5 mM), ATP (2.5 mM), pyruvate kinase (18 U/mL), myokinase (10 U/mL), methylmalonyl-CoA epimerase (5 μM), CoA (1 mM), MatB (20 μM), NDK-SNAC (500 μM) and either methylmalonate, fluoromalonate or malonate (5 mM) as appropriate. Reactions were initiated by addition of DEBSMod2/AT^0 (10 μM) and incubated at 37° C. overnight. Aliquots were removed, quenched by addition of HCl to 1 M, then processed and analyzed as described above.

DEBSMod6+TE [1] = test: Triketide lactone production under competitive conditions; type: biochemical
Method: For reactions with substrate regeneration, assay mixtures contained 400 mM sodium phosphate, pH 7.5, phosphoenolpyruvate (50 mM), TCEP (5 mM), magnesium chloride (10 mM), ATP (2.5 mM), pyruvate kinase (27 U/mL), myokinase (10 U/mL), methylmalonyl-CoA epimerase (5 μM), NDK-SNAC (15 mM) and DEBSMod6+TE (10 μM). Reactions were initiated by simultaneous addition of MatB (40 μM), fluoromalonyl-CoA (1 μM) and malonyl-CoA (1 μM) and incubated at 37° C. for 18-20 h. Protein was removed by filtration through a 3 kDa NWCO membrane at 14,000×g and the filtrate was analyzed by LC-MS. Standards of H-TKL and F-TKL were prepared using a mock reaction mixture (acyl-CoAs replaced by CoAs and NDK-SNAC replaced by N-acetyl cysteamine) as diluent. TKLs were quantified using single ion monitoring, H-TKL in positive mode and F-TKL in negative mode. For reactions without substrate regeneration, assay mixtures contained 400 mM sodium phosphate, pH 7.5, TCEP (5 mM), methylmalonyl-CoA epimerase (5 μM), NDK-SNAC (3 mM) and DEBSMod6+TE (10 μM). Reactions were initiated by adding fluoromalonyl-CoA (1 mM) and malonyl-CoA (1 mM) simultaneously. The mixtures were incubated at 37° C. for 20 h, then quenched, processed and analyzed as described above. H-TKL was monitored using an Agilent 6130 MS operating in positive ion mode, and the limit of detection was verified by spiking samples to 50 nM H-TKL using a standard solution.

DEBSMod6+TE [2] = test: Time-course of TKL and F-TKL formation by DEBSMod6+TE with substrate regeneration; type: biochemical
Method: Assay and preparative mixtures contained 400 mM sodium phosphate, pH 7.5, phosphoenolpyruvate (50 mM), TCEP (5 mM), magnesium chloride (10 mM), ATP (2.5 mM), pyruvate kinase (27 U/mL), myokinase (10 U/mL), CoA (0.5 mM), methylmalonyl-CoA epimerase (5 μM), MatB (40 μM or as specified) and fluoro- or methylmalonate (10-20 mM). […] This mixture was incubated at 37° C. for 30-45 min and then initiated by addition of the N-acetylcysteamine thioester of (2S,3R)-2-methyl-3-hydroxypentanoic acid (NDK-SNAC, 1-10 mM) (Cane, D. E., et al., J. Am. Chem., 115:527-535 (1993)) and DEBSMod6+TE (10 μM). Aliquots (35 μL) were removed and quenched by addition of 70% perchloric acid (1.75 μL). […] The supernatant was removed and analyzed on a Zorbax Eclipse XDB C-18 column (3.5 μm, 3×150 mm, 35° C., Agilent) using a linear gradient from 0 to 40% acetonitrile over 14 min with 0.1% formic acid as the aqueous mobile phase after an initial hold at 0% acetonitrile for 30 s (0.8 mL/min) Products were monitored using an Agilent G1315D diode array detector (TKL, A260 nm or A275 nm, F-TKL, A247 nm, NDK-SNAC; A260 nm). […] For absolute quantification, each analyte was compared to an external standard curve. […] The concentrations of TKL and H-TKL were determined by ^1H NMR in D2O using the ERETIC method against an external standard of diethylfluoromalonate (75 mM).

[3] = molecular target: T2, acetyl-CoA carboxylase (ACCase) (Escherichia coli, UniProt P0A9Q5+P0ABD5); test: Acetyl-CoA carboxylase discontinuous HPLC assay with AckA-Pta; type: biochemical, E. coli
T2 construct: made in house; host or cells: E. coli BL21(de3)T1R
Method: ACCase activity was measured using a discontinuous HPLC assay. Assays were performed at 30° C. in a total volume of 200 μL containing 50 mM HEPES, pH 7.5, TCEP (10 mM), bovine serum albumin (3 mg/mL), CoA (0.5 mM), ATP (2.5 mM), magnesium chloride (10 mM), sodium bicarbonate (75 mM), acetate or fluoroacetate (10 mM), phosphoenolpyruvate (10 mM), pyruvate kinase (4 U), AckA (0.1 μM), Pta (10 μM) and ACCase (15 μM). The pH of the buffer remained unchanged after addition of sodium bicarbonate. ACCase stock solution was prepared by pre-mixing the protein subunits at equimolar ratio (85 μM) except for AccB, which was added at 1.5-fold molar excess. The reaction was initiated with addition of ATP. Aliquots (20 μL) were removed and quenched by the addition of 70% perchloric acid (1 μL). Insoluble material was removed by centrifugation and the supernatant was analyzed on an Agilent 1200 or 1290 HPLC system on a LiChroCART 250-4 Purospher RP-18e column (5 μm, 4.6×250 mm, Millipore) and monitored at A260 nm. For reactions with acetate, a linear gradient from 2 to 20% acetonitrile over 10 min with 5 mM sodium phosphate and 5 mM sodium citrate with 0.1% trifluoroacetic acid, pH 4.6 as the aqueous mobile phase (1 mL/min) was used to analyze the reaction. […]

DEBSMod6+TE [4] = molecular target: T3, DEBSMod6+TE (Saccharopolyspora erythraea, UniProt Q03133); test: Acyl-CoA hydrolysis by DEBSMod6+TE (DTNB assay); type: biochemical; conditions: for v0 (rate of acyl-CoA hydrolysis): DEBSMod6 + TE (1 μM), acyl-CoA (500 μM), mean ± s.d. (n = 4); for Relative rate of acyl-CoA hydrolysis: relative to methylmalonyl-CoA
T3 construct: the sixth module of DEBS, including the terminal thioesterase (DEBSMod6+TE); His6 (C); made in house; host or cells: E. coli BAP1
Method: Hydrolytic activity of DEBSMod6+TE was measured by monitoring the reaction of free CoA with DTNB as described previously (Huang, F., et al., Chem. Biol., 13:475-484 (2006)). Assays were performed at 37° C. in a total volume of 200 μL containing 400 mM sodium phosphate, pH 7.5, 500 μM DTNB, and DEBSMod6+TE (1 μM). Reactions were initiated by addition of acyl-CoA (0.5 mM) and monitored at 412 nm in a Beckman Coulter DU-800 spectrophotometer. Release of CoA was quantified by comparison to a standard curve (5-100 μM).

NphT7 = molecular target: T4, NphT7 (Streptomyces sp., UniProt D7URV0); test: Acetoacetyl-CoA synthase NphT7 NADPH-coupled assay with PhaB; type: biochemical; conditions: NphT7 reaction product
T4 construct: made in house; host or cells: E. coli BL21(de3)T1R
T4 sequence (D7URV0 1-329): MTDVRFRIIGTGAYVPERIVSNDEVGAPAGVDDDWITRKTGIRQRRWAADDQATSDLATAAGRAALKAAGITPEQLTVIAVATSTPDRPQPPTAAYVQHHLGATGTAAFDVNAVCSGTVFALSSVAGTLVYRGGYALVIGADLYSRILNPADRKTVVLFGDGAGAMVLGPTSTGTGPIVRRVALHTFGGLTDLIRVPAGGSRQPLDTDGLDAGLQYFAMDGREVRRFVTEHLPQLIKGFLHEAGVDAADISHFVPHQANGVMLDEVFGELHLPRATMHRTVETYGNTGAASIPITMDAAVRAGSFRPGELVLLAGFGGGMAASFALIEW
Method: NphT7 activity was measured using a NADPH-coupled assay with PhaB. Assays were performed at 30° C. in a total volume of 500 μL containing 50 mM HEPES, pH 7.5, NADPH (160 μM), acetyl-CoA (200 μM), PhaB (0.05 mg/mL), NphT7 (0.2 μM for malonyl-CoA; 0.5 μM for fluoromalonyl-CoA) and malonyl-CoA (5-150 μM) or fluoromalonyl-CoA (5-200 μM). Reactions were initiated with the addition of malonyl- or fluoromalonyl-CoA and monitored at 340 nm in an Agilent 8453 diode array spectrophotometer. The PhaB-coupled assay was tested both by doubling NphT7, which doubled the initial velocity with both the fluorinated and non-fluorinated substrates, and also by doubling the amount of PhaB, which led to no difference in initial velocity.

[5] = MatB regeneration, equimolar malonyl-CoA and fluoromalonyl-CoA, mean ± s.d. (n = 3)

CC[C@H]1OC(=O)[C@@H](F)C(=O)[C@H]1C [F-TKL, (2S,4S,5R)-2-fluoro-4-methyl-3-oxo-5-hydroxy-n-heptanoic Acid δ-lactone]
conversion of NDK-SNAC to R-TKL (DEBSMod2/AT^0): 43%
[F-TKL]/[H-TKL] (DEBSMod6+TE [1]; MatB regeneration): 10.3 ± 0.1
[F-TKL] (DEBSMod6+TE [1]; [5]): 7,390 ± 520 nM
[F-TKL]/[H-TKL] (DEBSMod6+TE [1]; No regeneration): >9
[F-TKL] (DEBSMod6+TE [1]; No regeneration, equimolar malonyl-CoA and fluoromalonyl-CoA (1 mM), mean ± s.d. (n = 3)): 450 ± 60 nM
fold more F-TKL than H-TKL produced (DEBSMod6+TE [1]; direct competition, equimolar (1 mM) fluoromalonyl-CoA and malonyl-CoA): at least 10 fold
Initial rate of F-TKL formation (DEBSMod6+TE [2]; 10 mM NDK-SNAC): 0.14 h⁻¹

O=C(O)CF [Fluoroacetate, reference compound]
fold slower rate of conversion compared to acetate ([3]; one-pot AckA-Pta/ACCase carboxylation): 4.5 fold

CCC1OC(=O)CC(O)C1C (stereo not drawn) [H-TKL, 2-desmethyltriketide lactone, reference compound]
conversion of NDK-SNAC to R-TKL (DEBSMod2/AT^0): < 0.01%
[H-TKL] (DEBSMod6+TE [1]; [5]): 720 ± 50 nM
[H-TKL] (DEBSMod6+TE [1]; No regeneration, equimolar malonyl-CoA and fluoromalonyl-CoA (1 mM)): <50 nM

CC(C)(COP(=O)(O)OP(=O)(O)OC[C@H]1O[C@@H](n2cnc3c(N)ncnc32)[C@H](O)[C@@H]1OP(=O)(O)O)[C@@H](O)C(=O)NCCC(=O)NCCSC(=O)CC(=O)O [Malonyl-CoA]
v0 (rate of acyl-CoA hydrolysis) (DEBSMod6+TE [4]): 6.1 ± 0.4 µM/min
Relative rate of acyl-CoA hydrolysis (DEBSMod6+TE [4]): 4.5

CC(C(=O)O)C(=O)SCCNC(=O)CCNC(=O)[C@H](O)C(C)(C)COP(=O)(O)OP(=O)(O)OC[C@H]1O[C@@H](n2cnc3c(N)ncnc32)[C@H](O)[C@@H]1OP(=O)(O)O (stereo partly drawn) [Methylmalonyl-CoA]
v0 (rate of acyl-CoA hydrolysis) (DEBSMod6+TE [4]): 1.36 ± 0.05 µM/min
Relative rate of acyl-CoA hydrolysis (DEBSMod6+TE [4]): 1.0

CC[C@@H](O)[C@H](C)C(=O)SCCNC(C)=O [NDK-SNAC, (2S,3R)-2-methyl-3-hydroxypentanoyl-N-acetylcysteamine thioester]
NDK-SNAC consumed (DEBSMod2/AT^0; fluoromalonyl-CoA regeneration system): 82%
NDK-SNAC consumed (DEBSMod2/AT^0; malonyl-CoA regeneration system): 100%

CC[C@H]1OC(=O)[C@H](C)C(=O)[C@H]1C [TKL, (2R,4S,5R)-2,4-Dimethyl-3-oxo-5-hydroxy-n-heptanoic acid β-lactone, reference compound]
conversion of NDK-SNAC to R-TKL (DEBSMod2/AT^0): all
Initial rate of TKL formation (DEBSMod6+TE [2]; 2.5 mM NDK-SNAC): 1.5 min⁻¹

CC(=O)C(F)C(=O)SCCNC(=O)CCNC(=O)[C@H](O)C(C)(C)COP(=O)(O)OP(=O)(O)OC[C@H]1O[C@@H](n2cnc3c(N)ncnc32)[C@H](O)[C@@H]1OP(=O)(O)O (stereo partly drawn) [acetofluoroacetyl-CoA]
stability under the assay conditions (NphT7): degrade fairly rapidly

CC(C)(COP(=O)(O)OP(=O)(O)OC[C@H]1O[C@@H](n2cnc3c(N)ncnc32)[C@H](O)[C@@H]1OP(=O)(O)O)[C@@H](O)C(=O)NCCC(=O)NCCSC(=O)CF [fluoroacetyl-CoA]
covalent inactivation of the ACCase ([3]; judged from overall extent of reaction): not significant
